Like-named read-outs stand apart in the source and are kept apart here. Marks after values point to notes of the source that are not given here. Values belong to the compound of their own block, whether it stands above or below them.
Key:
[1] = 0.15M NaNO3; from Baranyai et al., Chem. Sci. 2021; cited from earlier work
[2] = Protonation constants of the Fe(III) complexes (pH-potentiometry / UV spectrophotometry); format: physicochemical
Experimental: The protonation constants (KMHiLigand=[MHiLigand]/([MHi-1Ligand]×[H^+])) of the Fe(III) complexes of Compound 2, of Compound 4, of NOTA (comparative), and of HBED (comparative) were determined by pH-potentiometric and/or by spectrophotometric studies.
In particular, the protonation constants of the Fe(NOTA) and Fe(HBED) complexes were determined using pH-potentiometry by titrating the pre-prepared complexes from pH=1.7 to pH=12.0 with 0.2 M NaOH([FeL]=0.002 M). For the pH measurements and titrations, Metrohm 888 Titrando titration workstation Metrohm-6.0234.110 combined electrode was used. Equilibrium measurements were carried out at a constant ionic strength (0.15 M NaNO3 or NaClO4) in 6 ml samples at 25° C. The solutions were stirred, and N2 was bubbled through them. The titrations were made in the pH range of 1.7-12.0. KH-phthalate (pH=4.005) and borax (pH=9.177) buffers were used to calibrate the pH meter. For the calculation of [H^+] from the measured pH values, the method disclosed in Irving et al. Anal. Chim. Acta, 1967, 38, 475-488 was used as follows: a 0.01M HNO3 or HClO4 solution was titrated with a standardized NaOH solution at 0.15 M NaNO3 ionic strength. The differences (A) between the measured (pHread) and calculated pH (−log [H^+]) values were used to obtain the equilibrium H^+ concentration from the pH values measured in the titration experiments (A=0.02 for 0.15 M NaNO3, 0.01 for 0.15 M NaClO4). For the equilibrium calculations, the stoichiometric water ionic product (pKw) was also needed to calculate [OH^−] values under basic conditions. The VNaOH-pHread data pairs of the HNO3—NaOH titration obtained in the pH range 10.5-12.0 were used to calculate the pKw value (pKw=13.76).
The protonation constants of Fe(Compound 2) and Fe(Compound 4) complexes were determined by UV spectrophotometry analysis in the wavelength range of 210-700 nm ([Fe(Compound 2)]=43 μM, [Fe(Compound 4)]=100 μM, 0.15 M NaClO4, 25° C.) according to the method disclosed in Example 11A above.

[3] = Kinetic inertness: transchelation reactions with excess HBED as exchanging ligand; format: physicochemical
Experimental: To obtain data relating to the kinetic inertness of Fe(Compound 2), Fe(Compound 4) and Fe(NOTA) (comparative), the transchelation reactions (schematized below) were investigated by VIS-spectrophotometry (for Fe(Compound 4) and Fe(NOTA), comparative) and by Capillary Zone Electrophoresis (CZE) (for Fe(Compound 2)) in the presence of a large excess of HBED as an exchanging ligand (Fe(Compound 2): [Fe(Compound 2)]=87 μM, [HBED]=0.1 and 0.2 M, 1.0 M NaClO4, 25° C.; Fe(Compound 4): [Fe(Compound 4)]=100 μM, [HBED]=0.002 and 0.02 M, 0.15 M NaNO3, 25° C. Fe(NOTA): [Fe(NOTA)]=0.2 mM, [HBED]=2.0 and 4.0 mM, 0.15 M NaNO3, 25° C.) in order to guarantee the pseudo-first order kinetic conditions. FeL+HBED ? Fe(HBED)+L with L=Compound 2, Compound 4 or NOTA. A) Determination of Kinetic Inertness of Fe(III) Complexes
The transchelation reactions of Fe(Compound 4) and Fe(NOTA) (comparative) were studied by spectrophotometry, following the formation of the resulting Fe(HBED) complex at 472 and 470 nm with PerkinElmer Lambda 365 UV-Vis spectrophotometer. The concentration of the Fe(Compound 4) and Fe(NOTA) complex was 0.1 and 0.2 mM, while the concentration of the HBED was 10-200 times higher, in order to guarantee pseudo-first-order conditions. The temperature was maintained at 25° C. and the ionic strength of the solutions was kept constant, 0.15 M for NaNO3. The exchange rates were studied in the pH range about 9.5-14.0. Buffer was not used since the excess of HBED was able to maintain the constant pH values at pH<12. […] The pseudo-first-order rate constants (kd) were calculated by fitting of the absorbance—time data pairs to Equation 2.
[formula] where At, A0 and Ap are the absorbance values at time t, the start of the reaction and at equilibrium, respectively. […] The pseudo-first-order rate constants (kd) were calculated by fitting the area-time data pairs to Equation 2 above, where At, A0 and Ap are the area values at time t, the start of the reaction and at equilibrium, respectively. […]

[4] = for pFe (−log [Fe^3+]free, conditional stability): 10 µM, pH 7.4
Experimental: (§1) To assess the thermodynamic stability of the Fe(III) complexes of the invention, as well as of comparative ones, the protonation constants of the respective ligands first, and then of the Fe(III) complexes, were determined by pH-potentiometry and/or by UV spectrophotometry. Finally, based on the protonation constants, the thermodynamic stability constant of the Fe(III) complexes of the invention were determined by observing the competition reaction between the Fe(III) complexes and the N,N′-bis(2-hydroxybenzyl)ethylenediamine-N,N′-diacetic acid (HBED) ligand using capillary zone electrophoresis (CZE) for Compound 2 and Vis spectrophotometry for Compound 4.
(§2) The thermodynamic stability constants (KMLigand=([MLigand]/([M]×[Ligand])) of the Fe(III) complexes were determined as follows.
(§3) The stability constant of the Fe(NOTA) complex was determined by spectrophotometry studies of the Fe^3+-NOTA system at the absorption band of Fe^III complexes at [H^+]=0.01-3.0 M in the wavelength range of 350-800 nm. The concentrations of Fe^3+ and NOTA were 0.002 M. The H^+ concentration in the samples was adjusted with the addition of calculated amounts of a 6 M solution of HNO3 (I=[Na^+]+[H^+]=0.15, [H^+]≤0.15 M). The samples were kept at 25° C. for two weeks.
(§4) The absorbance values of the samples were determined at 11 wavelengths (370, 380, 390, 395, 400, 405, 410, 415, 420, 425 and 430 nm). For the calculations of the thermodynamic stability constant of the Fe(NOTA), the molar absorptivities of Fe^3+ and Fe(NOTA) were determined by recording the spectra of 1.0×10^−3, 1.5×10^−3, 2.0×10^−3 and 2.5×10^−3 M solutions of Fe^3+ and Fe(NOTA) solutions. The absorption spectra of the Fe(NOTA) solutions were recorded in the pH range of 1.7-7.5. All spectrophotometric measurements were performed at 25° C. in 0.15 M NaNO3 solution. The pH was adjusted by stepwise addition of concentrated NaOH or HNO3 solutions.
(§5) The stability constants of the Fe(HBED) complex was determined by following the competition reaction between HBED and NOTA ligands for Fe^3+-ion with spectrophotometry at the absorption band of Fe(HBED) complex in the wavelength range of 400-700 nm. […] The time needed to reach the equilibria was determined by spectrophotometry. The absorbance values of the samples were determined at the absorption band of the Fe(HBED) complex ([Fe(HBED)]-species predominates at pH=5.0). For the calculations of the thermodynamic stability constants of the Fe(HBED) complexes, the molar absorptivities of [Fe(HBED)]-species were determined by recording the spectra of 0.5, 0.1 and 0.2 mM solutions of [Fe(HBED)]^− at pH=5 in the presence of 0.15 M NaNO3. […] The thermodynamic stability constants were calculated with the PSEQUAD program. […]

[5] = Thermodynamic stability of the Fe(III) complexes (competition with HBED/NOTA, CZE or spectrophotometry); conditions: Spectrophotometry, 0.15M NaNO3, 25° C.
Experimental: as §1, §2, §3, §4, §5

[6] = 60 MHZ, 40° C. in PBS buffer; cited from earlier work
[7] = Spectrophotometry, 0.15M NaClO4, 25° C.
[8] = 0.15M NaNO3, 25° C., spectrophotometry
[9] = pH-potentiometry, 0.15M NaNO3, 25° C.

SMILES: O=C(O)CN(CC(=O)O)C1CCCCC1N(CC(=O)O)CC(=O)O (stereo not drawn) [CDTA, trans-cyclohexane diamine tetraacetic acid]
- kd (s^−1) at pH = 7.4 (dissociation rate constant) [1]: 2.1 × 10^−9 s^−1

- FeH2L (protonation constant of the Fe(III) complex) [2, 7]: 9.47 (1)^b
- FeH3L (protonation constant of the Fe(III) complex) [2, 7]: 7.82 (5)^b
- FeHL (protonation constant of the Fe(III) complex) [2, 7]: 10.53 (4)^b
- pFe (−log [Fe^3+]free, conditional stability) [4]: 32.4
- FeL (thermodynamic stability constant, log KFeL) ([4]; 4 weeks, 87 µM, pH 11): 44.0 (3)
SMILES: Cc1cc(CNC(CO)CO)c(O)c(CN2CCN(Cc3cc(C)cc(CNC(CO)CO)c3O)CCN(Cc3cc(C)cc(CNC(CO)CO)c3O)CC2)c1 [Compound 2, 2,2′,2″-{1,4,7-triazonane-1,4,7-triyltris[methylene(2-hydroxy-5-methyl-3,1-phenylene)methyleneazanediyl]}tri(propane-1,3-diol)]
- kd (s^−1) at pH = 7.4 (dissociation rate constant) ([3]; 1.0M NaClO4, 25° C., CZE, extrapolated from data at pH>9.0): 1.9 × 10^−9 s^−1

- FeH2L (protonation constant of the Fe(III) complex) [2, 7]: 6.02 (1)^b
- FeHL (protonation constant of the Fe(III) complex) [2, 7]: 8.82 (1)^b
- FeLH−1 (protonation constant of the Fe(III) complex) [2, 7]: 10.12 (1)^b
- pFe (−log [Fe^3+]free, conditional stability) [4]: 26.5
SMILES: Cc1cc(CNC(CO)CO)c(O)c(CN2CCNCCN(Cc3cc(C)cc(CNC(CO)CO)c3O)CC2)c1 [Compound 4, 2,2′-{1,4,7-triazonane-1,4-diylbis[methylene(2-hydroxy-5-methyl-3,1-phenylene)methyleneazanediyl]}di(propane-1,3-diol)]
- kd (s^−1) at pH = 7.4 (dissociation rate constant) [3, 8]: 3.4 × 10^−8 s^−1

SMILES: O=C(O)CN(CCN(CC(=O)O)CC(=O)O)CC(=O)O [EDTA]
- kd (s^−1) at pH = 7.4 (dissociation rate constant) [1]: 2.9 × 10^−6 s^−1

- FeL (thermodynamic stability constant, log KFeL) [5]: 40.2
SMILES: O=C([O-])CN(CCN(CC(=O)[O-])Cc1ccccc1[O-])Cc1ccccc1[O-].[Fe+3] [Fe(HBED)]

- FeHL (protonation constant of the Fe(III) complex) [2, 9]: 1.87 (4)
- FeLH−1 (protonation constant of the Fe(III) complex) [2, 9]: 12.3 (1)
SMILES: O=C(O)CN(CCN(CC(=O)O)Cc1ccccc1O)Cc1ccccc1O [HBED, N,N′-bis(2-hydroxybenzyl)ethylenediamine-N,N′-diacetic acid, reference compound]
- r1 of Fe(III) complex [6]: 0.49 mM⁻¹ s⁻¹

- FeLH−1 (protonation constant of the Fe(III) complex) [2, 9]: 9.12 (4)
SMILES: O=C(O)CN1CCN(CC(=O)O)CCN(CC(=O)O)CC1 [NOTA, reference compound]
- kd (s^−1) at pH = 7.4 (dissociation rate constant) [3, 8]: 4.0 × 10^−9 s^−1

— patent US12358880B2, “1,4-bis-(2-hydroxy-benzyl)-1,4,7-triazacyclononane derivatives and similar compounds as ligands in iron(III) complexes for use as MRI contrast agents” (BRACCO IMAGING S.P.A., priority 2022, dated 2025)
